Here are results for 28 compounds from patent publication US9795597B2, “Cyclopropylamines as LSD1 inhibitors” (GlaxoSmithKline Intellectual Property (No.2) Limited, priority 2011, dated 2017).

Test [1] has as its target T1, LSD1 (Homo sapiens, UniProt O60341).
T1 construct: made in house
The test can be described thus: Biochemical assay for LSD-1 activity (luminescence, H3K4 dimethylated peptide substrate). Particulars: average of two or more tests; 30 min preincubation of enzyme and compound; read-out: LSD1 PIC50 MEAN (converted). How it is done: Biochemical Assay for LSD-1 Activity
The LSD-1 luminescence assay is performed in a buffer containing 25 mM Tris, pH 7.5, 50 mM potassium chloride, 0.02% heat-denatured BSA, 2 mM CHAPS and milliQ ultrapure water. […] The enzyme and test compound are allowed to incubate together for 30 minutes at room temperature. Two microliters of the substrate mix are then added to each well of the plate to initiate the reaction. The plates are covered, protected from light and allowed to incubate for two hours at room temperature. Then, 4 uL of HyPerBlu peroxide detection luminescence reagent (Lumigen/Beckman Coulter, cat# HPB-00005) is added to each well to quench the demethylase reaction and generate the peroxide-dependent luminescence signal. The plates are then incubated for 15-30 minutes in the dark at room temperature prior to being read for Luminescence using a Perkin Elmer Viewlux plate reader. Percent inhibition is calculated based on no compound and no enzyme controls, and inhibition curves are then plotted to determine PIC50 values.

In test [2] the target is T2, MAO-B (Homo sapiens, UniProt P27338).
T2 construct: purchased Gentest-BD Biosciences 456284
T2 sequence (P27338 1-520): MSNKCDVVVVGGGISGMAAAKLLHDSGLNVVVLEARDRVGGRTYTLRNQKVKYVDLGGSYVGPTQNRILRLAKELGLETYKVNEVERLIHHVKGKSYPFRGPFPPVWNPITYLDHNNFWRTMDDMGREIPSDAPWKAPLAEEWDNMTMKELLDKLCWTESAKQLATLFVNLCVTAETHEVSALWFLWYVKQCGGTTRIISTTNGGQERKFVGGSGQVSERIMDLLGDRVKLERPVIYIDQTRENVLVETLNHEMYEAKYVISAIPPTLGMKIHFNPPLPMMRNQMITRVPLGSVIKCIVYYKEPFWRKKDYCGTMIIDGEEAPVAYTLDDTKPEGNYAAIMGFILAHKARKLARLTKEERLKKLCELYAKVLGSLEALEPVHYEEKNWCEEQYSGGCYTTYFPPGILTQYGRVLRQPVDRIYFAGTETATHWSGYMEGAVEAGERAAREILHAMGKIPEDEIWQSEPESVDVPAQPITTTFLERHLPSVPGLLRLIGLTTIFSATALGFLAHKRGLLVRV
The test can be described thus: Biochemical assay for MAO-B activity (FLINT, benzylamine/amplex red). Particulars: average of two or more tests; 30 min preincubation of enzyme and compound; read-out: MAOB PIC50 MEAN (converted). How it is done:
Biochemical Assay for MAO-B Activity
The MAO-B FLINT assay is performed in a buffer containing 50 mM potassium phospate, pH 7.4, in milliQ ultrapure water. […] The enzyme and test compound are allowed to incubate together for 30 minutes at room temperature. Five microliters of the substrate mix are then added to each well of the plate to initiate the reaction. The plates are covered, protected from light and allowed to incubate for one hour at room temperature. […] Percent inhibition is calculated based on no compound and no enzyme controls, and inhibition curves are then plotted to determine PIC50 values.

Counter-ions that a name gives are not always drawn.

In the case of `OB(O)c1ccc(CN2CCC(CN[C@@H]3C[C@H]3c3ccccc3)CC2)cc1` (relative stereo) [Example 57, (4-((4-(((trans-2-phenylcyclopropyl)amino)methyl)piperidin-1-yl)methyl)phenyl)boronic acid], the figures for the IC50 in test [1] and in test [2] were 0.00794 µM and 31.6 µM, respectively.
For the compound `O=C(O)c1ccc(CN2CC[C@@H](CN[C@@H]3C[C@H]3c3ccccc3)C2)cc1` [Example 28b, 4-{[(3S)-3-({[(1R,2S)-2-Phenylcyclopropyl]amino}methyl)-1-pyrrolidinyl]methyl}benzoic acid], the IC50 in test [1] is 0.0794 µM; in test [2] it was 25.1 µM.
Take `c1ccc([C@@H]2C[C@H]2NCC2CCN(Cc3ccncc3)CC2)cc1` (relative stereo) [Example 33, trans-2-Phenyl-N-((1-(pyridin-4-ylmethyl)piperidin-4-yl)methyl)cyclopropanamine]: the IC50 in test [1] is 0.0158 µM; in test [2] it was 50.1 µM.
As for `O=C(O)c1ccc(CCN2CCC(CN[C@@H]3C[C@H]3c3ccccc3)CC2)cc1` [Example 123, 4-(2-(4-((((1R,2S)-2-phenylcyclopropyl)amino)methyl)piperidin-1-yl)ethyl)benzoic acid], the values for the IC50 in test [1] and in test [2] were 0.0316 µM and 20 µM, respectively.
`CC(N[C@H]1CC1c1ccccc1)C1CCNCC1` (stereo in doubt) [Example 24, [trans-2-Phenylcyclopropyl][1-(4-piperidinyl)ethyl]amine]: the IC50 was 0.01 µM in test [1] and 63.1 µM in test [2].
Consider `CC(C)(C)OC(=O)N1CCC(CN[C@H]2C[C@@H]2c2ccccc2)CC1` [Example 3, 1,1-Dimethylethyl 4-({[(1S,2R)-2-phenylcyclopropyl]amino}methyl)-1-piperidinecarboxylate], for which the IC50 in test [1] was 0.631 µM; in test [2] it was 7.94 µM.
On to `O=C(O)CCN1CCC(CN[C@@H]2C[C@H]2c2ccccc2)CC1` [Example 71, 3-(4-((((1R,2S)-2-Phenylcyclopropyl)amino)methyl)piperidin-1-yl)propanoic acid], for which the IC50 was 0.1 µM in test [1] and 7.94 µM in test [2].
With `Cc1cc(CN2CCC(CN[C@@H]3C[C@H]3c3ccccc3)CC2)no1` (relative stereo) [Example 47, trans-N-((1-((5-Methylisoxazol-3-yl)methyl)piperidin-4-yl)methyl)-2-phenylcyclopropanamine], the results for the IC50 in test [1] and in test [2] were 0.1 µM and 15.8 µM, respectively.
Turning to `O=C(O)CCN1CC[C@H](CN[C@@H]2C[C@H]2c2ccccc2)C1` [Example 150, 3-((R)-3-((((1R,2S)-2-Phenylcyclopropyl)amino)methyl)pyrrolidin-1-yl)propanoic acid], the IC50 was 0.0251 µM in test [1] and 79.4 µM in test [2].
The like results for `Fc1ccccc1C[N+]1(Cc2ccccc2F)CCC(CN[C@@H]2C[C@H]2c2ccccc2)CC1` (relative stereo) [Example 35, 1,1-Bis(2-fluorobenzyl)-4-(((trans-2-phenylcyclopropyl)amino)methyl)piperidin-1-ium chloride] were, in that order, 0.0158 µM and 31.6 µM.
For the compound `CC(C)(C)OC(=O)N1CCCC(CN[C@H]2CC2c2ccccc2)CC1` (stereo in doubt) [Example 21, 1,1-Dimethylethyl 4-({[trans-2-phenylcyclopropyl]amino}methyl)hexahydro-1H-azepine-1-carboxylate], the IC50 in test [1] was 2 µM; in test [2], 15.8 µM.
In the case of `CN(CCC1CCNCC1)[C@@H]1C[C@H]1c1ccccc1` (relative stereo) [Example 77, trans-N-Methyl-2-phenyl-N-(2-(piperidin-4-yl)ethyl)cyclopropanamine], the IC50 is 0.2 µM in test [1] and 31.6 µM in test [2].
The like results for `c1ccc(C2C[C@@H]2NCC2CCCNC2)cc1` (stereo in doubt) [Example 16, [trans-2-Phenylcyclopropyl](3-piperidinylmethyl)amine] were, in that order, 0.00794 µM and 39.8 µM.
Regarding `c1ccc(C2C[C@@H]2NCC2CCCNCC2)cc1` (stereo in doubt) [Example 22, N-(Hexahydro-1H-azepin-4-ylmethyl)-trans-2-phenylcyclopropanamine], the IC50 is 0.0794 µM in test [1] and 100 µM in test [2].
In the case of `O=C(O)CN1CCC(CN[C@H]2C[C@@H]2c2ccccc2)CC1` (relative stereo) [Example 27, 2-(4-(((trans-2-phenylcyclopropyl)amino)methyl)piperidin-1-yl)acetic acid], the figures for the IC50 in test [1] and in test [2] were 0.2 µM and 63.1 µM, respectively.
The like results for `O=C(O)c1ccc(CN2CCC(CN[C@H]3C[C@@H]3c3ccccc3)CC2)cc1` (relative stereo) [Example 26, 4-((4-(((trans-2-phenylcyclopropyl)amino)methyl)piperidin-1-yl)methyl)benzoic acid] were, in that order, 0.2 µM and 50.1 µM.
For `O=C(OCc1ccccc1)N1CCC(CN[C@@H]2C[C@H]2c2ccccc2)CC1` (relative stereo) [Example 18, Benzyl 4-(((trans-2-phenylcyclopropyl)amino)methyl)piperidine-1-carboxylate], the IC50 is 0.0316 µM in test [1] and 0.631 µM in test [2].
As for `O=C(O)c1ccc(CCCN2CCC(CN[C@@H]3C[C@H]3c3ccccc3)CC2)cc1` [Example 30, 4-{3-[4-({[(1R,2S)-2-Phenylcyclopropyl]amino}methyl)-1-piperidinyl]propyl}benzoic acid 2 HCl], the IC50 was 0.0126 µM in test [1] and 31.6 µM in test [2].
On the same counts, the results for `OCCN1CCC(CN[C@@H]2C[C@H]2c2ccccc2)CC1` (relative stereo) [Example 11, 2-(4-(((trans-2-Phenylcyclopropyl)amino)methyl)piperidin-1-yl)ethanol] are 0.0126 µM and 31.6 µM.
With `CC(=O)N(CC1CCNCC1)[C@@H]1C[C@H]1c1ccccc1` (relative stereo) [Example 17, N-(trans-2-Phenylcyclopropyl)-N-(piperidin-4-ylmethyl)acetamide], the results for the IC50 in test [1] and in test [2] were 20 µM and 63.1 µM, respectively.
On to `O=C(Nc1ccccc1)N1CCC(CN[C@@H]2C[C@H]2c2ccccc2)CC1` (relative stereo) [Example 12, N-Phenyl-4-(((trans-2-phenylcyclopropyl)amino)methyl)piperidine-1-carboxamide], for which the values for the IC50 in test [1] and in test [2] were 0.0794 µM and 2 µM, respectively.
For the compound `c1ccc(C2C[C@@H]2NCC2CNCCO2)cc1` (stereo in doubt) [Example 25, N-(2-Morpholinylmethyl)-trans-2-phenylcyclopropanamine], the IC50 in test [1] is 0.02 µM; in test [2] it was 12.6 µM.
As for `CN1CCC(CN[C@@H]2C[C@H]2c2ccccc2)CC1` (relative stereo) [Example 20, [(1-Methyl-4-piperidinyl)methyl][trans-2-phenylcyclopropyl]amine], the IC50 is 0.00631 µM in test [1] and 25.1 µM in test [2].
In the case of `CN(CC1CCNCC1)[C@H]1CC1c1ccccc1` (stereo partly shown) [Example 19], the IC50 in test [2] is 31.6 µM.
For the compound `c1ccc([C@@H]2C[C@H]2NCC2CCCCC2)cc1` (relative stereo) [Example 7, trans-N-(Cyclohexylmethyl)-2-phenylcyclopropanamine], the IC50 in test [1] was 0.158 µM; in test [2], 0.398 µM.
Consider `c1ccc(CN2CCC(CN[C@@H]3C[C@H]3c3ccccc3)CC2)cc1` (relative stereo) [Example 8, [trans-2-Phenylcyclopropyl]{[1-(phenylmethyl)-4-piperidinyl]methyl}amine], for which the values for the IC50 in test [1] and in test [2] were 0.00631 µM and 25.1 µM, respectively.
For `O=C(O)c1ccc(CN2CC[C@H](CN[C@@H]3C[C@H]3c3ccccc3)C2)cc1` [Example 28a, 4-{[(3R)-3-({[(1R,2S)-2-Phenylcyclopropyl]amino}methyl)-1-pyrrolidinyl]methyl}benzoic acid], the IC50 is 0.158 µM in test [1] and 31.6 µM in test [2].
As to `CC(C)(C)OC(=O)N1CCC(CN[C@@H]2C[C@H]2c2ccccc2)CC1` [Example 2, 1,1-Dimethylethyl 4-({[(1R,2S)-2-phenylcyclopropyl]amino}methyl)-1-piperidinecarboxylate], the results for the IC50 in test [1] and in test [2] were 0.0398 µM and 0.631 µM, respectively.
